Data from US20130109682A1, “CYCLIC ETHER COMPOUNDS USEFUL AS KINASE INHIBITORS” (NOVARTIS AG, priority 2010, published 2013).
Read-outs that look alike come from different tables or passages of the source.

Legend:
PIM2 = PIM2 (Homo sapiens, UniProt Q9P1W9); experiment: Pim 2 AlphaScreen assay (high ATP); format: biochemical; conditions: read-out: Pim2 IC50
In short: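 IC50 values rest on detection of phosphorylated Bad peptide: after a ~2 h kinase reaction, an EDTA stop buffer containing anti-phospho Ser/Thr antibody, Protein A and streptavidin AlphaScreen beads was added and read after overnight dark incubation. ATP was high (11-125× Km), with 2.5% DMSO in pH 7.5 Hepes buffer containing MgCl2, BSA, Tween-20 and DTT.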

KDR kinase = KDR kinase (Homo sapiens, UniProt P35968); experiment: KDR kinase inhibition assay (LanthaScreen TR-FRET); format: biochemical; conditions: TR-FRET assay
Method: KDR Kinase Inhibition Assay
LanthaScreen™ is the detection of Time-Resolved Fluorescence Resonance Energy Transfer (TR-FRET) using lanthanide chelates to measure interactions between various binding partners. The application of TR-FRET to assay kinase activity was first described by Mathis (1995). A TR-FRET assay was used to measure KDR kinase inhibitory activity. The assay panel was run on a Biomek FX liquid handling workstations. To the assay plates containing 50 nL compound or control solutions, 4.5 μL of buffer A (50 mM TRIS-HCl pH 7.4, 2 mM DTT, 0.02% Tween 20, 0.02 mM Na3VO4, H2O nanpure) including a generic concentration of ATP (2 μM f.c.) was added per well, followed by 4.5 μL of buffer B (4 uM ATP in Buffer A) including a generic concentration of polyEAY (50 nM f.c.), KDR kinase, and divalent cations. Final concentration of kinase and cations were: [KDR kinase]=0.38 nM, [Mg]=10 mM, [Ca]=1 mM. After 1 hour of incubation the kinase reactions were stopped by the addition of 4.5 μL of stop solution D (50 mM EDTA, 20 mM TRIS-HCl pH 7.4, 0.04% NP-40) immediately followed by 4.5 μL of buffer A (50 mM TRIS-HCl pH 7.4, 2 mM DTT, 0.02% Tween 20, 0.02 mM Na3VO4, H2O nanpure) including the Tb-labeled P-20 antibody to give a total detection volume of 18 μL. After an incubation time of 45 min in the dark, the plates were transferred into the Pherastar fluorescence reader for counting. The effect of compound on the enzymatic activity was obtained from the linear progress curves and determined from one reading (end point measurement).

hERG = target: T1, hERG (Homo sapiens, UniProt Q12809); experiment: hERG binding assay ([3H] dofetilide displacement); conditions: read-out: HERGdof IC50
T1 construct: host or cells: crude membrane suspension
Method: Compounds of the invention were pipetted into each well of pre-wet 96-well Millipore GF/C filter plates (#MSFCN6B50): 119 μl assay buffer, 1 μl test compound in 100% DMSO (or 100% DMSO only for total binding), 40 μl [3H] dofetilide (12.5 nM, final concentration 2.5 nM; Novartis radioisotope laboratory, East Hanover, N.J., USA, specific activity 15-45 Ci/mmol); 40 μl crude membrane suspension (ca. 15 μg protein). The final concentration of DMSO during the incubation was 0.5%. Incubations were performed at room temperature for 90 min. Non-specific binding (NSB) was defined as the binding remaining in the presence of 25 μM terfenadine (Sigma T9652). The incubations were terminated by rapid filtration on a Millipore filtration manifold, followed by three washes of 200 μA ice-cold assay buffer. The plates were left to dry overnight before adding 40 μA scintillant (MicroScint-20). The plates were then sealed (Sealing Tape SI, Nunc 236366) and read in a Wallac MicroBeta Trilux beta-counter for 1.5 min per well. Compounds were tested as 9-concentration response curves in duplicate, ranging from 30 μM to 3 nM in 1:3 dilution steps. Dilution curves were prepared in 100% DMSO. The reference compound (terfenadine) was tested as an eight-concentration response curve, ranging from 10 μM to 0.6 nM in 1:4 dilution steps.

PIM3 = PIM3 (Homo sapiens, UniProt Q86V86); experiment: KinaseGlo Pim3 ATP depletion assay; format: biochemical
In short: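 Residual ATP was detected by luciferase luminescence once about half had been consumed. The reaction contained 5 nM enzyme, 100 μM BAD peptide (RSRHSSYPAGT) and 40 μM ATP in 50 mM HEPES pH 7.5, 5 mM MgCl2, 1 mM DTT and 0.05% BSA with 2.5% DMSO. Compound and enzyme/peptide were premixed 15 min before ATP.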

Chain of PIM2 (Q9P1W9 whole entry): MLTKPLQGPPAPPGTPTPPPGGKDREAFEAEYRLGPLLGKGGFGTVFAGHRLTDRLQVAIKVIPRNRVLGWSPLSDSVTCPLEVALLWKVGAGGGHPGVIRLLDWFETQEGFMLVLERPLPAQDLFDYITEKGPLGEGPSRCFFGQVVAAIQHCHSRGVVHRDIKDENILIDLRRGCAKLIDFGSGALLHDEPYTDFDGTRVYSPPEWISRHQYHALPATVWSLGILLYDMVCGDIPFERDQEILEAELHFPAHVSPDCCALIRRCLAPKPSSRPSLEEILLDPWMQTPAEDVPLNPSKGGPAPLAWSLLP
T1 sequence (Q12809 whole entry): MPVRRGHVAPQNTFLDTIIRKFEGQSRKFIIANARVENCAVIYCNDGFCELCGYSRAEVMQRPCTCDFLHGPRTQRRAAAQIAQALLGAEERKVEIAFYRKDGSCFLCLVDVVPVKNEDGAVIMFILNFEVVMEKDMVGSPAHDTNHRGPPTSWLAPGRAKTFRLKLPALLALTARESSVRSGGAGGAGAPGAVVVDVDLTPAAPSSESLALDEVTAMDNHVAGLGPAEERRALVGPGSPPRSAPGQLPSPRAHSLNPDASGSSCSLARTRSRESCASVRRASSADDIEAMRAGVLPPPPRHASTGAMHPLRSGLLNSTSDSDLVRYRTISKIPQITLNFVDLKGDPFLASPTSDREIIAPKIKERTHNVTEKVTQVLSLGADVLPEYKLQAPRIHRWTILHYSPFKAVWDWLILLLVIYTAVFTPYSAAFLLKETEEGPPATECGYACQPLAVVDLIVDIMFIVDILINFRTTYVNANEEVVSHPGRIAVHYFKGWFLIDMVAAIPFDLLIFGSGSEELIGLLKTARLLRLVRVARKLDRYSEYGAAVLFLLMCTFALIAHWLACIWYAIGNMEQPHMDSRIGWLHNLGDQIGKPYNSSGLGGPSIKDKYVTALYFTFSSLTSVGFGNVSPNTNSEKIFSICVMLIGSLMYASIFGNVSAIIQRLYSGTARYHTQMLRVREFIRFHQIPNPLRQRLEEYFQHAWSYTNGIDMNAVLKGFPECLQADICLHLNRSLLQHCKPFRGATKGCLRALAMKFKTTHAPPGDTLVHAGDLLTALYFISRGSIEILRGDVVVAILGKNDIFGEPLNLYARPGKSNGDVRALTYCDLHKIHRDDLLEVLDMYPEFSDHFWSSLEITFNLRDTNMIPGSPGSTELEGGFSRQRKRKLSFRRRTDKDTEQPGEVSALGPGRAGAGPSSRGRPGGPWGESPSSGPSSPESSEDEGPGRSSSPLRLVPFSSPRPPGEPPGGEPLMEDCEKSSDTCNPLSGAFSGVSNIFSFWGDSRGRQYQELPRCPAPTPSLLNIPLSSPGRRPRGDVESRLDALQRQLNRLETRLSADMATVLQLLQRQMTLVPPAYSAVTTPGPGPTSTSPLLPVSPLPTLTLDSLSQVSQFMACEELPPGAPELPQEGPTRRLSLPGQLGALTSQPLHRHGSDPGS
Chain of KDR kinase (P35968 20-1356): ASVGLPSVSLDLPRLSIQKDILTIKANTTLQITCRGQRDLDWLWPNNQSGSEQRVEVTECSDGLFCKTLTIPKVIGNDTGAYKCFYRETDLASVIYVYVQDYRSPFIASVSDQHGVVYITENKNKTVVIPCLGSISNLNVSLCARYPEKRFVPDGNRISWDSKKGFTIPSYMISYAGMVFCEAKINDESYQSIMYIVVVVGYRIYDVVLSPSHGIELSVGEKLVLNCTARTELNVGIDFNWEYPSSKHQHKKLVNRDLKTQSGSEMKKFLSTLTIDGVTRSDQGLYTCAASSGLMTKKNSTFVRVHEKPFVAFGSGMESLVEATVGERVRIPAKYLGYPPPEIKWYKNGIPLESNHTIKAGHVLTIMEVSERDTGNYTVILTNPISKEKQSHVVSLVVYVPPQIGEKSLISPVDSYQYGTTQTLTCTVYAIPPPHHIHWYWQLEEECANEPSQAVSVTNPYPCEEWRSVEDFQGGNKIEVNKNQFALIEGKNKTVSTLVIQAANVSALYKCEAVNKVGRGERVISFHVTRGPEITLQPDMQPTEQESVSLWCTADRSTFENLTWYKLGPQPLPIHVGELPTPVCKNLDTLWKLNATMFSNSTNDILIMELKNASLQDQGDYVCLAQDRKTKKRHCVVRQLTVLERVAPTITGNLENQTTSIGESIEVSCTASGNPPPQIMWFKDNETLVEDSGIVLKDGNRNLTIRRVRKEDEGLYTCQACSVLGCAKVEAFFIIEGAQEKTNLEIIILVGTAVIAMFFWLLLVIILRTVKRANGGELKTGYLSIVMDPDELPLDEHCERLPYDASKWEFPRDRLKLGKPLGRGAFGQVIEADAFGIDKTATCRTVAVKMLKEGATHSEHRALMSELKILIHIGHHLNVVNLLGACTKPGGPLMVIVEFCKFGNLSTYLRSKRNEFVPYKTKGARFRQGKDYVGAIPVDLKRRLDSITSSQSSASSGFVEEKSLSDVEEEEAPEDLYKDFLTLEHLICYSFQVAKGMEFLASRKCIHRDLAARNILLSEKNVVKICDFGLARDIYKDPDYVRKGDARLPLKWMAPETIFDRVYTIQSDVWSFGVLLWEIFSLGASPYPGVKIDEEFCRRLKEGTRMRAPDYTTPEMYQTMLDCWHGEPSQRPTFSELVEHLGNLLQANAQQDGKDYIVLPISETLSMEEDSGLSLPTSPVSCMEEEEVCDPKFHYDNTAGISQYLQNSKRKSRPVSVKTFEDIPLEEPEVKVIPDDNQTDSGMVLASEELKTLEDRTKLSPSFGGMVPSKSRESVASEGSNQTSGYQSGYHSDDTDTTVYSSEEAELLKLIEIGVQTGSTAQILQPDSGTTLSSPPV

Compound	IC50 (PIM2)	IC50 (hERG; hERG binding, dofetilide)	IC50 (PIM3)	IC50 (hERG; dofetilide displacement)	other results
CC[C@]1(O)[C@H](C)O[C@H](c2ccncc2NC(=O)c2nc(-c3ccccc3)cnc2N)C[C@@H]1N [Example 189, 3-amino-N-(4-((2S,4S,5R,6S)-4-amino-5-ethyl-5-hydroxy-6-methyltetrahydro-2H-pyran-2-yl)pyridin-3-yl)-6-phenylpyrazine-2-carboxamide]	25000 nM				IC50 (KDR kinase): 1400 nM
COc1cc(F)c(-c2nc(C(=O)Nc3cnccc3[C@H]3C[C@@H](N)[C@](C)(O)[C@@H](C)O3)ccc2F)c(F)c1 [Example 242, N-(4-((2R,4R,5S,6R)-4-amino-5-hydroxy-5,6-dimethyltetrahydro-2H-pyran-2-yl)pyridin-3-yl)-6-(2,6-difluoro-4-methoxyphenyl)-5-fluoropicolinamide]	9.9 nM	6000 nM			
Nc1ncc(-c2ccccc2)nc1C(=O)Nc1cnccc1[C@H]1C[C@@H](O)[C@@]2(O)CCCC[C@H]2O1 [Example 173, 3-amino-N-(4-((2R,4R,4aS,8aR)-4,4a-dihydroxyoctahydro-2H-chromen-2-yl)pyridin-3-yl)-6-phenylpyrazine-2-carboxamide]			3.6 nM	> 30000 nM	
Nc1ncc(-c2ccccc2)nc1C(=O)Nc1cnccc1[C@@H]1C[C@H](O)[C@]2(O)CCC[C@@H]2O1 [Example 186, 3-amino-N-(4-((2S,4S,4aR,7aS)-4,4a-dihydroxyoctahydrocyclopenta[b]pyran-2-yl)pyridin-3-yl)-6-phenylpyrazine-2-carboxamide]			610 nM	> 30000 nM	
CC1(C)C[C@@H](N)C[C@H](c2ccncc2NC(=O)c2nc(-c3ccccc3)cnc2N)O1 [Example 296, 3-amino-N-(4-((2R,4S)-4-amino-6,6-dimethyltetrahydro-2H-pyran-2-yl)pyridin-3-yl)-6-phenylpyrazine-2-carboxamide]	283 nM				
N[C@H]1C[C@@H](c2ccncc2NC(=O)c2csc(-c3c(F)cccc3F)n2)O[C@H]2CCC[C@H]21 [Example 230, N-(4-((2S,4S,4aS,7aS)-4-aminooctahydrocyclopenta[b]pyran-2-yl)pyridin-3-yl)-2-(2,6-difluorophenyl)thiazole-4-carboxamide]		4000 nM			
C[C@H]1O[C@@H](c2ccncc2NC(=O)c2ccc(F)c(-c3c(F)cccc3F)n2)C[C@@H](N)[C@]1(C)O [Example 219, N-(4-((2R,4R,5S,6R)-4-amino-5-hydroxy-5,6-dimethyltetrahydro-2H-pyran-2-yl)pyridin-3-yl)-6-(2,6-difluorophenyl)-5-fluoropicolinamide]	8.5 nM	16000 nM			
O=C(Nc1cnccc1[C@H]1C[C@@H](O)[C@@]2(O)CCCC[C@H]2O1)c1c[nH]cc(-c2ccccc2)c1=O [Example 178, N-(4-((2R,4R,4aS,8aR)-4,4a-dihydroxyoctahydro-2H-chromen-2-yl)pyridin-3-yl)-4-oxo-5-phenyl-1,4-dihydropyridine-3-carboxamide]			124 nM	> 30000 nM	
Nc1cnc(-c2c(F)cccc2F)nc1C(=O)Nc1cnccc1[C@H]1C[C@@H](N)[C@@]2(O)CCC[C@H]2O1 [Example 213, 5-amino-N-(4-((2R,4R,4aS,7aR)-4-amino-4a-hydroxyoctahydrocyclopenta[b]pyran-2-yl)pyridin-3-yl)-2-(2,6-difluorophenyl)pyrimidine-4-carboxamide]			5.8 nM	> 30000 nM	
O=C1CC[C@H]2O[C@@H](c3ccncc3NC(=O)c3ccc(F)c(-c4c(F)cccc4F)n3)C[C@@H](O)[C@@H]2N1 [Example 196, 6-(2,6-difluorophenyl)-5-fluoro-N-(4-((2R,4R,4aS,8aR)-4-hydroxy-6-oxooctahydro-2H-pyrano[3,2-b]pyridin-2-yl)pyridin-3-yl)picolinamide]			3.6 nM	> 30000 nM	
Nc1ncc(-c2ccccc2)nc1C(=O)Nc1cnccc1[C@@H]1C[C@H](N)[C@]2(O)CCCC[C@@H]2O1 [Example 243, 3-amino-N-(4-((2S,4S,4aR,8aS)-4-amino-4a-hydroxyoctahydro-2H-chromen-2-yl)pyridin-3-yl)-6-phenylpyrazine-2-carboxamide]					IC50 (KDR kinase): 8400 nM
N[C@@H]1C[C@H](c2ccncc2NC(=O)c2ccc(F)c(-c3c(F)cccc3F)n2)O[C@@H]2CCC[C@H]12 [Example 224, N-(4-((2R,4R,4aR,7aR)-4-aminooctahydrocyclopenta[b]pyran-2-yl)pyridin-3-yl)-6-(2,6-difluorophenyl)-5-fluoropicolinamide]		2000 nM			
N[C@@H]1C[C@H](c2ccncc2NC(=O)c2ccc(F)c(-c3c(F)cccc3F)n2)O[C@@H]2CCC[C@]12O [Example 210, N-(4-((2R,4R,4aS,7aR)-4-amino-4a-hydroxyoctahydrocyclopenta[b]pyran-2-yl)pyridin-3-yl)-6-(2,6-difluorophenyl)-5-fluoropicolinamide]			2.3 nM	10000 nM	
Nc1ncc(-c2ccccc2)nc1C(=O)Nc1cnccc1[C@@H]1C[C@H](O)[C@]2(O)CCCC[C@@H]2O1 [Example 176, 3-amino-N-(4-((2S,4S,4aR,8aS)-4,4a-dihydroxyoctahydro-2H-chromen-2-yl)pyridin-3-yl)-6-phenylpyrazine-2-carboxamide]			202 nM	> 30000 nM	
CC1(C)C[C@H](N)C[C@@H](c2ccncc2NC(=O)c2nc(-c3ccccc3)cnc2N)O1 [Example 297, 3-amino-N-(4-((2S,4R)-4-amino-6,6-dimethyltetrahydro-2H-pyran-2-yl)pyridin-3-yl)-6-phenylpyrazine-2-carboxamide]	514 nM				
CC[C@]1(O)[C@H](O)C[C@H](c2ccncc2NC(=O)c2nc(-c3c(F)cccc3F)ncc2N)O[C@@H]1C [Example 143, 5-amino-2-(2,6-difluorophenyl)-N-(4-((2R,4R,5S,6R)-5-ethyl-4,5-dihydroxy-6-methyltetrahydro-2H-pyran-2-yl)pyridin-3-yl)pyrimidine-4-carboxamide]			2.4 nM	> 30000 nM	
CC[C@]1(O)[C@H](N)C[C@H](c2ccncc2NC(=O)c2ccc(F)c(-c3c(F)cccc3F)n2)O[C@@H]1C [Example 232, N-(4-((2R,4R,5S,6R)-4-amino-5-ethyl-5-hydroxy-6-methyltetrahydro-2H-pyran-2-yl)pyridin-3-yl)-6-(2,6-difluorophenyl)-5-fluoropicolinamide]		5000 nM			
Nc1cc(F)c(-c2c(F)cccc2F)nc1C(=O)Nc1cnccc1[C@H]1C[C@@H](N)[C@@]2(O)CCCC[C@H]2O1 [Example 238, 3-amino-N-(4-((2R,4R,4aS,8aR)-4-amino-4a-hydroxyoctahydro-2H-chromen-2-yl)pyridin-3-yl)-6-(2,6-difluorophenyl)-5-fluoropicolinamide]	1.8 nM	4000 nM			
Nc1ncc(-c2ccccc2)nc1C(=O)Nc1cnccc1[C@H]1C[C@@H](O)[C@@]2(O)CCC[C@H]2O1 [Example 195, 3-amino-N-(4-((2R,4R,4aS,7aR)-4,4a-dihydroxyoctahydrocyclopenta[b]pyran-2-yl)pyridin-3-yl)-6-phenylpyrazine-2-carboxamide]			3.2 nM	> 30000 nM	
